From patent US20160280631A1, “ESTER COMPOUNDS INCLUDING TRIESTERS HAVING TERMINAL VICINAL ACYL GROUPS” (BIOSYNTHETIC TECHNOLOGIES, LLC., priority 2015, published 2016)

Experiment: kinematic viscosity (ASTM Method D445-97)
Format: physicochemical
Details: measured at 100° C.
Method: Except as otherwise described, pour point is measured by ASTM Method D97-96a, cloud point is measured by ASTM Method D2500, viscosity/kinematic viscosity is measured by ASTM Method D445-97, viscosity index is measured by ASTM Method D2270-93 (Reapproved 1998), specific gravity is measured by ASTM Method D4052, flash point is measured by ASTM Method D92, evaporative loss is measured by ASTM Method D5800, vapor pressure is measured by ASTM Method D5191, and acute aqueous toxicity is measured by Organization of Economic Cooperation and Development (OECD) 203.

Structure (SMILES) | kinematic viscosity
CCCCC(CC)COC(=O)CCCCCCCCC(COC(C)=O)OC(C)=O (centres unmarked) [Example 4] | less than 10 cSt
CCCCC(CC)COC(=O)CCCCCCCCC(COC(=O)C(C)C)OC(=O)C(C)C (centres unmarked) [Example 5] | less than 10 cSt
